The values below come from US20230103791A1 (GLAXOSMITHKLINE INTELLECTUAL PROPERTY DEVELOPMENT LIMITED, priority 2019, published 2023).

T1 sequence (Q9Y5Y9 whole entry): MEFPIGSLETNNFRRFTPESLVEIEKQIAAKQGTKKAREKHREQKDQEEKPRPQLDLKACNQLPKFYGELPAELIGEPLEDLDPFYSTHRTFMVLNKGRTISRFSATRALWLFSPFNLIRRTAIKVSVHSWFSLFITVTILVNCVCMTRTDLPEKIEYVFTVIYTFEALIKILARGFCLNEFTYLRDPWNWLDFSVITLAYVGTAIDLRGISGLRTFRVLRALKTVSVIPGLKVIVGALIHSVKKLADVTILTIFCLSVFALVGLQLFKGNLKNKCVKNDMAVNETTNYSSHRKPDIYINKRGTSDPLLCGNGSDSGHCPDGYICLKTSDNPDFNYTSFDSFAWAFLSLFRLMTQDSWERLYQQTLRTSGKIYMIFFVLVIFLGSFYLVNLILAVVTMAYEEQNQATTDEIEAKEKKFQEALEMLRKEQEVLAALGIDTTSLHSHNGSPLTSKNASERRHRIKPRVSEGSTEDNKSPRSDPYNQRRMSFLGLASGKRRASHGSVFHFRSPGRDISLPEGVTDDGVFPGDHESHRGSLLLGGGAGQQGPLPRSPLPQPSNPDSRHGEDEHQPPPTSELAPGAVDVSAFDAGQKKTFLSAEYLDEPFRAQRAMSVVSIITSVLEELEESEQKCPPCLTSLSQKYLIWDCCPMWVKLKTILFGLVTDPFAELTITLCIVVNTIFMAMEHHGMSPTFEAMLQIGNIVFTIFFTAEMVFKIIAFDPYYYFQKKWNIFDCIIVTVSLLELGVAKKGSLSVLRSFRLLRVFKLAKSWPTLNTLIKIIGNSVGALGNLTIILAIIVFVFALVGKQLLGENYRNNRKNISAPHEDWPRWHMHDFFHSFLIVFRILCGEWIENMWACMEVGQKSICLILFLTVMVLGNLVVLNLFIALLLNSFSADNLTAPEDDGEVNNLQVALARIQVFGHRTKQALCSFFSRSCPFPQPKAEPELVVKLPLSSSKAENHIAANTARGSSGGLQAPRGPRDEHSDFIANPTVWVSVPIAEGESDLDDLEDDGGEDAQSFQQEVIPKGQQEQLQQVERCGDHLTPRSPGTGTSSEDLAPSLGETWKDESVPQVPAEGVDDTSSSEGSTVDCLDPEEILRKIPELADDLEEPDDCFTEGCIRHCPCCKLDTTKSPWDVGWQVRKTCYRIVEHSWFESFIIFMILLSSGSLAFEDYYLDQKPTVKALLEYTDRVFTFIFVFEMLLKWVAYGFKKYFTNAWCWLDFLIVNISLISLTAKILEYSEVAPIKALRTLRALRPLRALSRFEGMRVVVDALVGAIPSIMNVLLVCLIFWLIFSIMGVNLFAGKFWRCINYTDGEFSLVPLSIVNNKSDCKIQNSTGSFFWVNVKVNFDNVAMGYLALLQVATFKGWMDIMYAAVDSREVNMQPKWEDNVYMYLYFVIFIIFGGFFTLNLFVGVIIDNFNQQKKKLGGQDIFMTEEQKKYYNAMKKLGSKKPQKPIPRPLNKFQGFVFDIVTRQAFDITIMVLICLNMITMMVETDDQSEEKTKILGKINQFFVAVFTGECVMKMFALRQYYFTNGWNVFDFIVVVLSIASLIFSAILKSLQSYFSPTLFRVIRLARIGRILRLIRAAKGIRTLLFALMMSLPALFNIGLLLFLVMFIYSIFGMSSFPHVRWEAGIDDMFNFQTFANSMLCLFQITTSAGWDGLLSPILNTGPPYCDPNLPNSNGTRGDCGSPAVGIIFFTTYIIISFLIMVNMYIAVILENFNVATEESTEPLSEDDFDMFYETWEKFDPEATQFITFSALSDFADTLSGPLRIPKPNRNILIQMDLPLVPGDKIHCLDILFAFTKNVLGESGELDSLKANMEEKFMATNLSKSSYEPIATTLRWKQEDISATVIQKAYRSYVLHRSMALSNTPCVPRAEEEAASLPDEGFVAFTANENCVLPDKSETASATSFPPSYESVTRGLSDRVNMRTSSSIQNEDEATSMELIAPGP
T1 sequence (Q07699 19-218 partner): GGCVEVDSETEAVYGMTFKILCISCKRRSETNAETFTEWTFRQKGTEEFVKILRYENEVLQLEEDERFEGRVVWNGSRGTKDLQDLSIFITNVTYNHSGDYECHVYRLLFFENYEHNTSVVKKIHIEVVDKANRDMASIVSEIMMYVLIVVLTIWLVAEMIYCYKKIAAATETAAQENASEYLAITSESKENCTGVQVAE

This test has as its target T1, human Nav1.8 (Homo sapiens, UniProt Q9Y5Y9).
T1 construct: expressed in transfected cells; host or cells: HEK293 (HEK293-Nav1.8)
Put plainly: Nav1.8 sodium channels assay, QPatch 48 HTX electrophysiology in HEK293-Nav1.8 cells. The format is cell-based. The conditions noted are these: at least one set of experimental runs; read-out: average pIC50 value against Nav1.8 (converted). The protocol: Human embryonic kidney […] cells (HEK293) expressing human Nav1.8, human Navβ1 and human TREK1 (HEK293-Nav1.8) were grown at 37° C., 5% CO2 in 150 cm^2 flasks. HEK293-Nav1.8 were passaged every 2-3 days when confluency reached 80-90% in to T175 cell culture flasks.
Pharmacological assessment of the invention was performed using HEK293-Nav1.8 in combination with an assay developed on the QPatch 48 HTX electrophysiological system. HEK293-Nav1.8 were prepared on the day of use by removing culture media, washing in DPBS, adding Accutase (2 ml to cover the surface, aspirate 1 ml then 1.5 min at 37° C.) followed by addition of CHO-SFM II to stop the enzyme digestion and in order to obtain a suspension of 3×10^6 cell/mL.
The invention was prepared in an extracellular solution of the following composition (in mM) NaCl 145, KCl 4, CaCl2 2, MgCl 2, HEPES 1, Glucose 10, pH 7.4 with NaOH Osmolality 300 mOsM/L. The intracellular solution was used of the following composition (in mM) CsF 115, CsCl 20, NaCl 5, EGTA 10, HEPES 10, Sucrose 20, pH 7.2 with CsOH Osmolality 310 mOsm/L.
Utilizing the voltage-clamp mode in the QPatch 48 HTX system a half inactivation state voltage protocol (V1/2) was used to determine pharmacological activity of the invention at Nav1.8 ion channels. A V1/2 protocol was utilized with the following voltage steps: a holding voltage of −100 mV was established followed by a 20 ms voltage step to 0 mV (P1), followed by an inactivating voltage step at −46 mV for 8 seconds, followed by a step to −100 mV for 20 ms, before a 20 ms step to 0 mV (P2) before returning to the holding voltage of −100 mV. This voltage protocol was repeated at a frequency of 0.07 Hz., current magnitude was quantified at the P2 step throughout the recording. Inhibition of the measured current amplitude with the invention was analyzed by fitting a 6-8 point dose-response curve allowing determination of the fifty percent inhibition concentration (IC50). Within the QPatch HTX software, P2 current was normalized according to measurements made at baseline after compound and after positive reference compound and fit to the following equation: […]
To assess current run-down over the course of the experiment vehicle-only wells were utilized and the normalized current with vehicle-only (n.IVEH) was determined. To correct the compound response for run-down, the currents were correct according the following formula: […]
Compounds of the invention are tested for activity against Nav1. 8 sodium channels in the above assay.
(In general: In patch-clamp work, channel activity is measured electrically.)
As for `CCc1cc(F)ccc1N1CN(c2ccncc2C)C(=O)c2cc(Cl)c(F)cc21` [Example 12, 6-chloro-1-(2-ethyl-4-fluorophenyl)-7-fluoro-3-(3-methylpyridin-4-yl)-2,3-dihydroquinazolin-4(1H)-one], the IC50 was 126 to 631 nM. As for `Cc1cc(F)ccc1N1CN(c2ccc(S(C)(=O)=O)cc2)C(=O)c2ccc(C(F)(F)F)cc21` [Example 13, 1-(4-fluoro-2-methylphenyl)-3-(4-(methylsulfonyl)phen-yl)-7-(trifluoromethyl)-2,3-dihydroquinazolin-4(1H)-one], the figure is 794 to 7940 nM.

On to `Cc1cc(F)ccc1N1CN(c2cccc(S(C)(=O)=O)c2)C(=O)c2ccc(C(F)(F)F)cc21` [Example 14, 1-(4-fluoro-2-methylphenyl)-3-(3-(methylsulfonyl)phen-yl)-7-(trifluoromethyl)-2,3-dihydroquinazolin-4(1H)-one], for which the IC50 was 794 to 7940 nM. As for `Cc1cc(F)ccc1N1CN(C2CCS(=O)(=O)C2)C(=O)c2cc(C(F)(F)F)ccc21` (centres unmarked) [Example 15, 3-(1,1-dioxidotetrahydro-thiophen-3-yl)-1-(4-fluoro-2-methylphenyl)-6-(trifluoromethyl)-2,3-dihydroquinazolin-4(1H)-one], the figure is 794 to 7940 nM; as for `Cc1cnccc1N1CN(c2ccc(F)cc2C)c2ccc(C(F)(F)F)cc2C1=O` [Example 16, 1-(4-fluoro-2-methylphenyl)-3-(3-methylpyridin-4-yl)-6-(trifluoromethyl)-2,3-dihydroquinazolin-4(1H)-one], 126 to 631 nM; as for `Cc1cc(F)ccc1N1CN(C2CCS(=O)(=O)CC2)C(=O)c2ccc(C(F)(F)F)cc21` [Example 17, 3-(1,1-dioxidotetrahydro-2H-thiopyran-4-yl)-1-(4-fluoro-2-methylphenyl)-7-(trifluoromethyl)-2,3-dihydroquinazolin-4(1H)-one], 794 to 7940 nM. As for `Cc1cc(F)ccc1N1CN(c2cn[nH]c2)C(=O)c2cc(C(F)(F)F)ccc21` [Example 18, 1-(4-fluoro-2-methylphenyl)-3-(1H-pyrazol-4-yl)-6-(trifluoromethyl)-2,3-dihydroquinazolin-4(1H)-one], the figure is 794 to 7940 nM; as for `COc1ccc(N2CN(c3ccc(F)cc3C)c3ccc(C(F)(F)F)cc3C2=O)c(C)n1` [Example 19, 1-(4-fluoro-2-methylphenyl)-3-(6-methoxy-2-methylpyridin-3-yl)-6-(trifluoromethyl)-2,3-dihydroquinazolin-4(1H)-one], 794 to 7940 nM. For the compound `Cc1cc(F)ccc1N1CN(c2n[nH]c(=O)cc2C)C(=O)c2ccc(C(F)(F)F)cc21` [Example 20, 1-(4-fluoro-2-methylphenyl)-3-(4-methyl-6-oxo-1,6-dihydropyridazin-3-yl)-7-(trifluoromethyl)-2,3-dihydroquinazolin-4(1H)-one], the IC50 is 794 to 7940 nM. As for `Cc1cnccc1N1CN(c2ccc(OC(F)(F)F)cc2C)c2ccc(C(F)(F)F)cc2C1=O` [Example 21, 1-(2-methyl-4-(trifluoromethoxy)phenyl)-3-(3-methylpyridin-4-yl)-6-(trifluoromethyl)-2,3-dihydroquinazolin-4(1H)-one], the figure is 126 to 631 nM; as for `Cc1cc(Cl)ncc1N1CN(c2ccc(F)cc2C)c2ccc(C(F)(F)F)cc2C1=O` [Example 22, 3-(6-chloro-4-methylpyridin-3-yl)-1-(4-fluoro-2-methylphenyl)-6-(trifluoromethyl)-2,3-dihydroquinazolin-4(1H)-one], 794 to 7940 nM. Turning to `Cc1cnccc1N1CN(c2ccc(F)cc2C)c2cc(C(F)F)c(Cl)cc2C1=O` [Example 23, 6-chloro-7-(difluoromethyl)-1-(4-fluoro-2-methylphenyl)-3-(3-methylpyridin-4-yl)-2,3-dihydroquinazolin-4(1H)-one], the IC50 was 126 to 631 nM. The same measure for `Cc1cc(F)ccc1N1CN(c2c[nH]nc2C)C(=O)c2cc(C(F)(F)F)ccc21` [Example 28, 1-(4-fluoro-2-methylphenyl)-3-(3-methyl-1H-pyrazol-4-yl)-6-(trifluoromethyl)-2,3-dihydroquinazolin-4(1H)-one]: 126 to 631 nM; for `Cc1cc(F)ccc1N1CN([C@H]2CCC(=O)N[C@@H]2C)C(=O)c2cc(C(F)(F)F)ccc21` [Example 33, 1-(4-fluoro-2-methylphenyl)-3-((2R,3S)-2-methyl-6-oxopiperidin-3-yl)-6-(trifluoromethyl)-2,3-dihydroquinazolin-4(1H)-one]: no more than 100 nM; for `Cc1cc(F)ccc1N1CN(C2CCC(=O)NC2=O)C(=O)c2cc(C(F)(F)F)ccc21` (centres unmarked) [Example 34, 3-(1-(4-fluoro-2-methylphenyl)-4-oxo-6-(trifluoromethyl)-1,4-dihydroquinazolin-3(2H)-yl)piperidine-2,6-dione]: 126 to 631 nM. As for `Cc1cc(F)ccc1N1CN(c2ccc(=O)[nH]c2C)C(=O)c2ccc(C(F)(F)F)cc21` [Example 35, 1-(4-Fluoro-2-methylphenyl)-3-(2-methyl-6-oxo-1,6-dihydropyridin-3-yl)-7-(trifluoromethyl)-2,3-dihydroquinazolin-4(1H)-one], the figure is no more than 100 nM; as for `Cc1cc(F)ccc1N1CN(c2ccc(=O)[nH]c2)C(=O)c2ccc(C(F)(F)F)cc21` [Example 36, 1-(4-fluoro-2-methylphenyl)-3-(6-oxo-1,6-dihydropyridin-3-yl)-7-(trifluoromethyl)-2,3-dihydroquinazolin-4(1H)-one], 126 to 631 nM.

In the case of `O=C1c2ccc(C(F)(F)F)cc2N(C2CCCCC2)CN1c1ccc(=O)[nH]c1` [Example 37, 1-cyclohexyl-3-(6-oxo-1,6-dihydropyridin-3-yl)-7-(trifluoromethyl)-2,3-dihydroquinazolin-4(1H)-one], the IC50 was 794 to 7940 nM. As for `Cc1cc(F)cc(C)c1N1CN(c2ccc(=O)[nH]c2)C(=O)c2ccc(C(F)(F)F)cc21` [Example 38, 1-(4-fluoro-2,6-dimethylphenyl)-3-(6-oxo-1,6-dihydropyridin-3-yl)-7-(trifluoromethyl)-2,3-dihydroquinazolin-4(1H)-one], the figure is 794 to 7940 nM; as for `Cc1cc(F)ccc1N1c2cc(C(F)(F)F)ccc2C(=O)N(c2ccc(=O)[nH]c2)C1C` (centres unmarked) [Example 39, 1-(4-fluoro-2-methylphenyl)-2-methyl-3-(6-oxo-1,6-dihydropyridin-3-yl)-7-(trifluoromethyl)-2,3-dihydroquinazolin-4(1H)-one], 794 to 7940 nM. As for `O=C1c2ccc(C(F)(F)F)cc2N(c2ccc(F)cc2Cl)CN1c1ccc(=O)[nH]c1` [Example 40, 1-(2-chloro-4-fluorophenyl)-3-(6-oxo-1,6-dihydropyridin-3-yl)-7-(trifluoromethyl)-2,3-dihydroquinazolin-4(1H)-one], the IC50 was 126 to 631 nM. As for `O=C1c2ccc(C(F)(F)F)cc2N(c2ccc(F)cc2OCCO)CN1c1ccc(=O)[nH]c1` [Example 41, 1-(4-fluoro-2-(2-hydroxyeth-oxy)phenyl)-3-(6-oxo-1,6-dihydropyridin-3-yl)-7-(trifluoromethyl)-2,3-dihydroquinazolin-4(1H)-one], the figure is 794 to 7940 nM; as for `O=C1c2ccc(C(F)(F)F)cc2N(c2ccc(F)cc2F)CN1c1ccc(=O)[nH]c1` [Example 42, 1-(2,4-difluorophenyl)-3-(6-oxo-1,6-dihydropyridin-3-yl)-7-(trifluoromethyl)-2,3-dihydroquinazolin-4(1H)-one], 794 to 7940 nM; as for `CCc1cc(F)ccc1N1CN(c2ccc(=O)[nH]c2)C(=O)c2ccc(C(F)(F)F)cc21` [Example 43, 1-(2-ethyl-4-fluorophenyl)-3-(6-oxo-1,6-dihydropyridin-3-yl)-7-(trifluoromethyl)-2,3-dihydroquinazolin-4(1H)-one], 126 to 631 nM. Take `Cc1cc(F)ccc1N1CN(c2ccc(=O)[nH]c2)C(=O)c2ccc(C(F)(F)F)c(Cl)c21` [Example 44, 8-chloro-1-(4-fluoro-2-methylphenyl)-3-(6-oxo-1,6-dihydropyridin-3-yl)-7-(trifluoromethyl)-2,3-dihydroquinazolin-4(1H)-one]: the IC50 was 794 to 7940 nM. Consider `Cc1cc(F)ccc1N1CN(c2ccc(=O)[nH]c2)C(=O)c2ccc(C(F)(F)F)c(C)c21` [Example 45, 1-(4-fluoro-2-methylphenyl)-8-methyl-3-(6-oxo-1,6-dihydropyridin-3-yl)-7-(trifluoromethyl)-2,3-dihydroquinazolin-4(1H)-one], for which the IC50 was 794 to 7940 nM.
